From patent US20250114464A1, “PRE-MRNA SLICE MODULATING PEPTIDE-CONJUGATED ANTISENSE THERAPEUTICS FOR THE TREATMENT OF DISEASES” (The Governors of the University of Alberta, priority 2022, published 2025)

What was measured:
[1] = system: dystrophin; settings: patients, after 180 weeks of treatment with 30 or 50 mg/kg/week; cited from earlier work
[2] = system: dystrophin; settings: in vitro; cited from earlier work
[3] = system: Taiwanese SMA mouse model (Smn^−/− SMN2^Tg/−); assay: Survival of severe SMA mice after subcutaneous injection at PD0; format: in vivo
Experimental: To examine whether DG9 peptide can increase the efficacy of PMO, DGS peptide was conjugated to an 18-mer PMO with a sequence identical to nusinersen. The DG9-conjugated PMO and unconjugated-PMO and 2′-O-methoxyethyl-RNA (MOE) were injected into SMA model mice.
Mice were subcutanteously injected with the AOs or saline (NT) administered at postnatal day 0 (PD0) at two different doses-40 mg/kg or 80 mg/kg. The survival was recorded until a humane endpoint was reached. For the 40 mg/kg doses, the median survival was 12 d (unconjugated-PMO), 15.5 d (MOE), and increased to 58 d for DG9-PMO treatment (FIG. 9a). The median survival incremented to 57 d (unconjugated-PMO), 121 d (DG9-PMO) and 64 d (MOE) for the higher dose of 80 mg/kg (FIG. 9a).
All animal experiments were conducted in University of Alberta and approved by the Animal Care and Use Committee, University of Alberta Research Ethics Office. SMA transgenic mice (JAX stock #005058 FVB.Cg-Tg(SMN2)2HungSmn1^tm1Hung/J (Smn^−/−; SMN2^Tg/Tg), also known as the Taiwanese mice) were purchased from Jackson Laboratory (Bar Harbor, ME, USA). Heterozygous mice for Smn1 (Smn1^+/−; SMN2^−/−) were crossed with mice homozygous for Smn1 Smn^−/−; SMN2^Tg/Tg to obtain the SMA mice (Smn^−/−; SMN2^Tg/−) or the heterozygous healthy control (Smn1^+/−; SMN2^Tg/−). The SMA mice display a severe overt phenotype similar to SMA type I patients. […]

[4] = system: Taiwanese SMA mouse model (Smn^−/− SMN2^Tg/−); assay: Righting reflex test; format: in vivo; settings: 40 mg/kg at PD0; mice that survived beyond PD12
Experimental: This spontaneous ability of the mice to right themselves up was tested from P2 until the weaning stage P20. The neonates were placed on their backs and the time taken to reposition and place all four paws on the ground was noted. The recording time was a maximum of 60 s. Each neonate underwent three trials, with a resting period of at least 10 minutes between trials. The data is expressed as the mean time to complete the righting reflex test ±SEM.

[5] = system: Taiwanese SMA mouse model (Smn^−/− SMN2^Tg/−); assay: Neuromuscular junction (NMJ) staining at PD30; format: in vivo, mice; settings: 40 mg/kg at PD0
Experimental: NMJ staining was carried out as previously described. Briefly, the quadricep and the intercostal muscle were fixed in 4% paraformaldehyde (PFA) for 2 hours. The muscles were washed quicky with PBS and blocked with 5% goat serum and 2% Triton-X in PBS for 1 hour at RT. This was followed by an overnight incubation at 4 with the primary mouse monoclonal antibodies anti-neurofilament 2H3 (1:100) and anti-synaptophysin (1:500) (DSHB, Iowa). Subsequently, the muscles were incubated in the dark with Alexafluor 488-goat anti-mouse IgG1 (1:1000) (Life Technologies) and Alexafluor 594-bungarotoxin (1:5000) (ThermoFisher Scientific). At least 300 NMJs were z-stacked and visualized for the analysis of denervation and cross-sectional area using a confocal microscope (Zeiss LSM 710) and Zeiss Zen software. The synaptic area was quantified using image J. All analyses were performed in a blinded fashion.

[6] = system: Taiwanese SMA mouse model (Smn^−/− SMN2^Tg/−); assay: H and E muscle pathology (myofiber size, centrally nucleated fibers) in SMA mice; format: in vivo; settings: 40 mg/kg at PD0
Source text: Atrophic musculature is a classical characteristic feature of SMA with diminished skeletal muscle fiber size. To determine the treatment effects on muscle pathology, we assessed the physiology and architecture of the myofibers of two affected muscle groups− the quadriceps and intercostal muscles, as well as the sparingly affected diaphragm at PD7 and PD30 [79,80]. We quantified the cross-sectional area (CSA), the minimal feret's diameter and centrally nucleated fibers for at least 500 myofibers per muscle for each treatment using hematoxylin & eosin (H & E) staining at PD7 and PD30 (FIG. 12a, b, FIGS. 19 and 20).
7 μm cryosections of the quadricep muscle, diaphragm and intercostal muscle were stained with Meyer's H&E reagents (Electron Microscopy Reagents). For the centrally nucleated fibers and myofiber size, 500-800 were randomly selected per muscle per treatment. The cross-sectional area and minimal Feter's diameter were quantified using Image J. All H and E analyses were performed in a blinded fashion.

[7] = system: Taiwanese SMA mouse model (Smn^−/− SMN2^Tg/−); assay: Whole-body plethysmographic recordings at PD7; format: in vivo, mice; settings: 40 mg/kg at PD0
Experimental: Measurements were performed in whole body, cylindrical transparent plexiglass plethysmographs that had one inflow and two outflow ports for the continuous delivery of fresh room air and removal of expired carbon dioxide. The plethysmograph of volumes were 10 ml (inner diameter: 1.9 cm, length: 3.5 cm for P7 mice with body weight less than 2.5 g), 30 ml (inner diameter: 2.6 cm, length: 5.6 cm for P7 mice with body weight more than 2.5 g) and 80 ml (inner diameter: 3.8 cm, length: 7 cm for P30) for measures of respiratory parameters with a flow rate of 15, 45, 120 ml/min, respectively. The gas was mixed with gas mixer (GSM-3, CWE InC, USA), delivered from compressed pure oxygen and pure nitrogen cannisters, being monitored using 0-200 ml/min gas regulators (Porter Instrument Company, USA).
Hypoxic challenge (11% of oxygen for 5 min) was performed with continuous monitoring of plethysmographic recordings without physical handling of the animal by switching inflow gas from normoxia (21% of oxygen, balanced by nitrogen) to hypoxia (11% of oxygen, balanced by nitrogen). […] For P30, the plethysmograph was recorded at room temperature of around 22° C. Pressure changes were detected with a pressure transducer (model DP 103; Validyne, USA), signal conditioner (CD-15; Validyne), recorded with data acquisition software (Axoscope) via analog-digital board (Digidata 1322A). […]

In the case of eteplirsen, the “dystrophin of normal levels” value [1] is given as 0.93%.

For “Ex51_Ac0: exon 51-skipping PMO, GTGTCACCAGAGTAACAGTCTGAGTAGGAG (all phosphorodiamidate morpholino (PMO); DG9 cell-penetrating peptide conjugated at 3' end in DG9-PMO)”, the “effectiveness in restoring dystrophin production relative to eteplirsen” value [2] is given as “up to 7 times”.

For “unconjugated-PMO: Example 2: 18-mer PMO targeting ISS-N1 intron 7 (5′-TCACTTTCATAATGCTGG-3′), sequence identical to nusinersen (all phosphorodiamidate morpholino (PMO); unconjugated)”, the median survival ([3]; 40 mg/kg subcutaneous at PD0) was 12 days, the median survival ([3]; 80 mg/kg subcutaneous at PD0) was 57 days and the “time to right themselves on their paws” value [4] was “still took longer than DG9-PMO mice”. The NMJ architecture [5] was “smaller endplates and collapsed vesicles”, the “full innervation of NMJs” value ([5]; quadriceps and intercostal muscles) was 40-50% and the quadriceps myofiber size ([6]; PD7) was “significantly smaller than those of DG9-PMO”. The “myofiber size and percent of central nuclei” value ([6]; PD30, all three tissue types) was “significantly smaller myofibers and a higher percent of central nuclei compared to DG9-PMO”, the “respiratory parameters (fR, VE, VT)” value ([7]; PD7, hypoxic environment (11% O2), relative to normoxia) was “slow, weak, and irregular breathing when compared to the Hets” and the respiratory phenotype ([7]; PD7, normoxic conditions (21% O2)) was “Half of the unconjugated-PMO mice (n=14) exhibited parameters as seen in NT mice”.
